Laboratory results taken from publication PMC11400632, “Substrate selectivity and inhibition of the human lysyl hydroxylase JMJD7” (Protein Science : A Publication of the Protein Society, 2024).
One block for each compound: values may come before it. Square brackets hold non-standard residues; d marks the D form. Ends that are not written are not given here. Peptide text beside a SMILES is read from it. 4Pal = N[C@@H](Cc1ccncc1)C(=O)O; Met(O) = CS(=O)CC[C@H](N)C(=O)O; SeMet = C[Se]CC[C@H](N)C(=O)O; Nle = CCCC[C@H](N)C(=O)O

How the values were obtained:
Assay type in all cases: biochemical
human JMJD7 [1] = biological target: T1, human JMJD7 (Homo sapiens, UniProt P0C870); assay: MALDI-TOF MS JMJD7 inhibition assay; conditions: 200 nM JMJD7 preincubated 15 min with peptide (1 nM–150 μM); 5 μM DRG1-Lys (17–40) substrate, 10 μM 2OG, 25 min, room temperature, Tris pH 7.5, MALDI MS; duplicate (n = 2), ± SE; read-out: IC50 (JMJD7 inhibition, with 15 min preincubation)
T1 construct: human JMJD7 (residues 1–316) with an N‐terminal His6‐tag; His6 (N); made in house; host or cells: Escherichia coli Rosetta (DE3)

human JMJD7 [2] = biological target: T1, human JMJD7; assay: LC-MS assay of JMJD7-catalyzed hydroxylation/oxidation of DRG1 peptides; conditions: for extent of hydroxylation by JMJD7 at higher 2OG concentration / degree of oxidation (+16 Da) of cysteine/methionine analog peptides by JMJD7: 2 μM JMJD7, 10 μM peptide; for extent of hydroxylation by JMJD7 at higher 2OG concentration: 20 μM 2OG, pH 7.5, 2 h incubation; for fate of the JMJD7 C3-hydroxylation product: 2 h; for extent of hydroxylation (+16 Da) by JMJD7: standard conditions: 2 μM JMJD7, 10 μM DRG1 peptide, room temperature
Protocol: Initial assays were carried out by incubation of purified recombinant (Markolovic et al., [2018]) human JMJD7 (2 μM) in the presence of a DRG1 derived peptide (10 μM), 2OG (10 μM), ferrous ammonium sulfate (FAS, 10 μM), and L‐ascorbate (LAA, 100 μM) in Tris buffer at pH 7.5 for 2 h at room temperature. Potential conversion to a hydroxylated product (+16 Da mass shift) was monitored by liquid‐chromatography‐mass‐spectrometry (LC–MS). […] The assay results also implied that DRG1‐Orn was hydroxylated, but to a lower extent (~21%) than DRG1‐Lys. […] The alcohol‐containing peptide hydroxynorleucine (DRG1‐HNle), was hydroxylated at relatively low levels (~24%), implying that H‐bonding interactions and positive charge of the N^ɛ‐amino group of lysine are important for efficient binding and catalysis, but that a neutral alcohol can still be accommodated at the active site (Figure 3f) (Markolovic et al., [2018]).
All reagents were procured from Sigma Aldrich. 2‐Oxoglutarate (2OG, 10 mM) and L‐ascorbic acid (LAA, 50 mM) solutions were prepared freshly by dissolving the solids in deionized water. Ferrous ammonium sulfate (FAS) solution was prepared freshly by dissolving FAS at 400 mM in 20 mM HCl with subsequent dilution to 1 mM using deionized water. JMJD7 assays using DRG1 (16–40) based peptides were performed with the following conditions: (i) 2 or 5 μM JMJD7, 10 μM DRG1 peptide, 100 μM LAA, 10 μM FAS, 10 μM 2OG in mM 50 Tris‐buffer (pH 7.5), (ii) 2 μM JMJD7, 10 μM DRG1 peptide, 100 μM LAA, 10 μM FAS, 20 μM 2OG in mM 50 Tris‐buffer (pH 7.5). Reactions were initiated by addition of enzyme to the cosubstrate/substrate solution in a final reaction volume of 50 μL with 2 h incubation at room temperature. A positive control reaction containing enzyme and a validated peptide substrate was included in all screening studies. After 2 h, reactions were stopped by addition of 5 μL of 10% (v/v) LC–MS grade formic acid (Fisher Scientific) and transferred to a 96 well plate (Agilent). Intact mass peptide analysis was performed by LC–MS using an Agilent 1290 infinity II LC system equipped with an Agilent 1290 multisampler and an Agilent 1290 high speed pump and connected to an Agilent 6550 accurate mass iFunnel quadrupole time of flight (Q‐TOF) mass spectrometer. The reaction mixture (4 μL) was injected and loaded onto a ZORBAX RRHD Eclipse Plus C18 column (Agilent). Solvent A consisted of LC–MS grade water containing 0.1% (v/v) formic acid and solvent B consisted of MeCN containing 0.1% (v/v) formic acid. Peptides were separated using a step wise gradient (0 min – 95% solvent A, 1.0 min – 80% solvent A, 3.0 min – 45% solvent A, 4.0 min – 45% solvent A, 5.0 min – 0% solvent A, 6.0 min – 0% solvent A, 7.0 min – 95% solvent A). This was followed by a 3 min elution with 95% solvent A to re‐equilibrate the column. Flow rates were 0.2 mL/min. The mass spectrometer was operated in the positive ion mode with a drying gas temperature (280°C), drying gas flow rate (13 L min^−1), nebulizer pressure (40 psig), sheath gas temperature (350°C), sheath gas flow rate (12 L min^−1), capillary voltage (4000 V), nozzle voltage (1000 V). Data were analyzed using Agilent MassHunter Qualitative Analysis (Version B.07.00) software.

human JMJD7 [3] = biological target: T1, human JMJD7; assay: SPE-MS time-course and steady-state kinetics of JMJD7-catalyzed hydroxylation; conditions: for k cat/K m / k cat / K m: SPE-MS, DRG1 peptide 0.1–5.0 μM, 2OG 20 μM, FAS 10 μM, LAA 100 μM, JMJD7 100 nM; for k cat: in min^-1; for K m: in µM (unit assumed)
Protocol: Having shown that introduction of γ‐thialysine and γ‐azalysine residues into DRG1 peptides generates substrates that are efficiently hydroxylated by JMJD7, giving nascent products that fragment to give formylglycine, we explored whether these two peptides could compete with the DRG1‐Lys substrate for JMJD7 catalysis. The reactions of DRG1‐Lys, DRG1‐CysNH2 and DRG1‐LysN (1.0 μM) by JMJD7 (50 nM) were investigated as a function of time using SPE‐MS assays.
To quantify the relative efficiencies of DRG1‐Lys and the substrate analog DRG1‐LysE, we carried out kinetics analyses using SPE‐MS assays as the levels of JMJD7‐catalyzed hydroxylation were sufficient for these two substrates.
JMJD7 turnover assays for kinetic studies were performed in 96‐well polypropylene assay plates with 1.0 mL total reaction volume using a series of concentrations of the DRG1 peptide (0.1–5.0 μM), 2OG (20 μM), FAS (10 μM), LAA (100 μM). Reactions were initiated by the addition of JMJD7 (100 nM). MS‐analyses were performed using a RapidFire RF 365 high‐throughput sampling robot (Agilent) attached to an iFunnel Agilent 6550 accurate mass quadrupole time‐of‐flight (Q‐TOF) mass spectrometer operated in the positive ionization mode. The RapidFire RF 365 high‐throughput sampling robot was programmed to aspirate samples from the reaction mixture at the indicated time intervals. Assay samples were loaded onto a C4 solid phase extraction (SPE) cartridge and peptides were eluted using given previous protocols (Tumber et al., [2023]). The % conversion of the hydroxylation reaction were calculated from the ion chromatogram data by integrating peak areas using RapidFire Integrator 4.3.0 software (Agilent).

[4] = 10 μM 2OG, 10 μM FAS, 100 μM LAA
[5] = standard conditions: 2 μM JMJD7, 10 μM peptide, 10 μM 2OG
[6] = 10 μM 2OG, 10 μM FAS, 100 μM LAA, Tris pH 7.5, 2 h
[7] = 1.0 μM peptide, 50 nM JMJD7, SPE-MS time-course

T1 sequence (P0C870 whole entry, the tested form may be a part): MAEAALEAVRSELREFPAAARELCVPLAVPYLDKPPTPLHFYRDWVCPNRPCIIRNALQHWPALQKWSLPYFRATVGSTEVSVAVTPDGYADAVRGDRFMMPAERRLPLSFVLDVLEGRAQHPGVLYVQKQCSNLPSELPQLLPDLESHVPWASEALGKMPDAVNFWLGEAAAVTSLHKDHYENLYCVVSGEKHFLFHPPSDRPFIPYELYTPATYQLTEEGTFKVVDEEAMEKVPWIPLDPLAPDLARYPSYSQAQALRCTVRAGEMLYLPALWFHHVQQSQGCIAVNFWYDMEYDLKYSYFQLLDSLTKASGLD

Compound: CC(C)C[C@H](NC(=O)CNC(=O)[C@H](CC(C)C)NC(=O)[C@H](Cc1c[nH]cn1)NC(=O)[C@H](Cc1c[nH]cn1)NC(=O)[C@H](C)NC(=O)[C@@H](NC(=O)[C@H](C)NC(=O)[C@H](Cc1ccncc1)NC(=O)[C@H](CC(N)=O)NC(=O)[C@H](CCCCN)NC(=O)[C@H](CCC(N)=O)NC(=O)[C@@H](NC(=O)[C@H](CCCNC(=N)N)NC(=O)[C@H](C)N)[C@@H](C)O)[C@@H](C)O)C(=O)N[C@@H](CC(C)C)C(=O)N[C@@H](CCCCN)C(=O)N[C@@H](C)C(=O)N[C@@H](CCCNC(=N)N)C(=O)N[C@@H](CC(C)C)C(=O)N[C@@H](C)C(=O)N[C@@H](CCCCN)C(=O)N[C@@H](CC(C)C)C(=O)N[C@@H](CCCNC(=N)N)C(=O)N[C@@H](CCCNC(=N)N)C(N)=O [DRG1‐4pyrA] (H-ARTQKN[4Pal]ATAHHLGLLKARLAKLRR-NH2)
IC50 (human JMJD7 [1]): 15.2 µM

Compound: ARTQKNAhpATAHHLGLLKARLAKLRR [DRG1‐Ahp, 25-mer DRG1 (16–40) peptide with Ahp at position 22]
extent of hydroxylation by JMJD7 at higher 2OG concentration (human JMJD7 [2]; 10 μM FAS, 100 μM LAA): did not manifest evidence for hydroxylation

Compound: ARTQKNCysMeATAHHLGLLKARLAKLRR [DRG1‐CysMe, 25-mer DRG1 (16–40) peptide with CysMe at position 22]
degree of oxidation (+16 Da) of cysteine/methionine analog peptides by JMJD7 (human JMJD7 [2]; [4]): oxidized relatively efficiently

Compound: ARTQKNCysNHmeATAHHLGLLKARLAKLRR [DRG1‐CysNHMe, 25-mer DRG1 (16–40) peptide with γ-methylthialysine at position 22]
possibly stable hemithioacetal product detected by MS (human JMJD7 [2]; standard conditions: 2 μM JMJD7, 10 μM peptide, 10 μM 2OG, 10 μM FAS, 100 μM LAA, Tris pH 7.5, 2 h): 12% | fate of the JMJD7 C3-hydroxylation product (human JMJD7 [2]; [5]): fragmentation to form DRG1‐formylglycine and its hydrated products

Compound: ARTQKND-LysATAHHLGLLKARLAKLRR [DRG1‐D‐Lys, 25-mer DRG1 (16–40) peptide with epimeric D-lysine at position 22]
extent of hydroxylation by JMJD7 at higher 2OG concentration (human JMJD7 [2]; 10 μM FAS, 100 μM LAA): ~ 6% | extent of hydroxylation (+16 Da) by JMJD7 (human JMJD7 [2]; [6]): not hydroxylated within detection limits

Compound: ARTQKNLysATAHHLGLLKARLAKLRR [DRG1‐Lys, 25-mer DRG1 fragment peptide (residues 16–40), C-terminal amide, Lys at position 22; JMJD7 substrate, reference compound]
extent of hydroxylation by JMJD7 at higher 2OG concentration (human JMJD7 [2]; 10 μM FAS, 100 μM LAA): ~ 98% | extent of hydroxylation (+16 Da) by JMJD7 (human JMJD7 [2]; [6]): ~ 78% | hydroxylation within 9 min (human JMJD7 [3]; 1.0 μM peptide, 50 nM JMJD7, SPE-MS time-course, 9 min): ~ 90% | k cat/K m (human JMJD7 [3]): 155000 M⁻¹ s⁻¹ | k cat (human JMJD7 [3]): 13.0 ± 0.36 | K m (human JMJD7 [3]): 1.4 ± 0.59 | substrate inhibition of JMJD7 (human JMJD7 [3]; increased substrate concentrations, 100 nM JMJD7, 20 μM 2OG, 10 μM FAS, 100 μM LAA, pH 7.5): substrate inhibition of JMJD7 was observed

Compound: ARTQKNLysEATAHHLGLLKARLAKLRR [DRG1‐LysE, 25-mer DRG1 (16–40) peptide with (E)-dehydrolysine at position 22]
extent of hydroxylation (+16 Da) by JMJD7 (human JMJD7 [2]; [6]): 90% | k cat/K m (human JMJD7 [3]): 133000 M⁻¹ s⁻¹ | k cat (human JMJD7 [3]): 24.7 ± 0.36 | K m (human JMJD7 [3]): 3.1 ± 0.81

Compound: ARTQKNLysMeATAHHLGLLKARLAKLRR [DRG1‐LysMe, 25-mer DRG1 (16–40) peptide with LysMe at position 22]
extent of hydroxylation by JMJD7 at higher 2OG concentration (human JMJD7 [2]; 10 μM FAS, 100 μM LAA): ~ 7%

Compound: ARTQKNLysNATAHHLGLLKARLAKLRR [DRG1‐LysN, 25-mer DRG1 (16–40) peptide with γ-azalysine at position 22]
fate of the JMJD7 C3-hydroxylation product (human JMJD7 [2]; [5]): fragmentation to form DRG1‐formylglycine and its hydrated products | relative rate / turnover in the time-course (human JMJD7 [3]; [7]): oxidized more slowly than DRG1‐CysNH2

Compound: ARTQKNnArgATAHHLGLLKARLAKLRR [DRG1‐nArg, 25-mer DRG1 (16–40) peptide with nArg at position 22]
extent of hydroxylation by JMJD7 at higher 2OG concentration (human JMJD7 [2]; 10 μM FAS, 100 μM LAA): did not manifest evidence for hydroxylation

Second part, led by results:

extent of hydroxylation by JMJD7 at higher 2OG concentration (human JMJD7 [2]; 10 μM FAS, 100 μM LAA): ~ 56% | extent of hydroxylation (+16 Da) by JMJD7 (human JMJD7 [2]; [6]): ~ 24% | relative rate / turnover in the time-course (human JMJD7 [3]; [7]): turnover was low
Compound: ARTQKNH[Nle]ATAHHLGLLKARLAKLRR [DRG1‐HNle, 25-mer DRG1 (16–40) peptide with hydroxynorleucine at position 22]

degree of oxidation (+16 Da) of cysteine/methionine analog peptides by JMJD7 (human JMJD7 [2]; [4]): ~ 86% | relative rate / turnover in the time-course (human JMJD7 [3]; [7]): turnover appeared to be low
Compound: ARTQKNMetATAHHLGLLKARLAKLRR [DRG1‐Met]

degree of oxidation (+16 Da) of cysteine/methionine analog peptides by JMJD7 (human JMJD7 [2]; [4]): showed no evidence for oxidation
Compound: ARTQKN[Met(O)]ATAHHLGLLKARLAKLRR [DRG1‐MetO]

degree of oxidation (+16 Da) of cysteine/methionine analog peptides by JMJD7 (human JMJD7 [2]; [4]): showed no evidence for oxidation
Compound: ARTQKN[SeMet]ATAHHLGLLKARLAKLRR [DRG1‐SeMet, 25-mer DRG1 (16–40) peptide with SeMet at position 22]

extent of hydroxylation by JMJD7 at higher 2OG concentration (human JMJD7 [2]; 10 μM FAS, 100 μM LAA): ~ 5%
Compound: ARTQKNhLysATAHHLGLLKARLAKLRR [DRG1‐hLys, 25-mer DRG1 (16–40) peptide with hLys at position 22]
extent of hydroxylation (+16 Da) by JMJD7 (human JMJD7 [2]; [6]): did not undergo hydroxylation within detection limits

degree of oxidation (+16 Da) of cysteine/methionine analog peptides by JMJD7 (human JMJD7 [2]; [4]): ~ 89%
Compound: ARTQKNhMetATAHHLGLLKARLAKLRR [DRG1‐hMet, 25-mer DRG1 (16–40) peptide with homomethionine at position 22]

degree of oxidation (+16 Da) of cysteine/methionine analog peptides by JMJD7 (human JMJD7 [2]; [4]): did also not undergo oxidation
Compound: ARTQKNhSerATAHHLGLLKARLAKLRR [DRG1‐hSer, 25-mer DRG1 (16–40) peptide with hSer at position 22]

degree of oxidation (+16 Da) of cysteine/methionine analog peptides by JMJD7 (human JMJD7 [2]; [4]): showed no evidence for oxidation
Compound: ARTQKNmeOhSerATAHHLGLLKARLAKLRR [DRG1‐meOhSer, 25-mer DRG1 (16–40) peptide with meOhSer at position 22]
